US20100093973A1, “POLY(AMINO ACID) COMPOUND HAVING INHIBITORY ACTIVITY ON ABSORPTION OF PHOSPHORUS AND PHOSPHORUS ABSORPTION INHIBITOR” (priority 2007, published 2010)
Where a name gives a salt, the structure may show the parent alone.

Assays:
absorption of phosphorus = test: Evaluation of efficacy as phosphorus absorption inhibitors: serum radioactivity AUC (0-120 min) after oral 32P NaH2PO4 in rats, inhibitory rate; type: in vivo; conditions: rats of SD line, 32P NaH2PO4 given orally 5 min later, serum radioactivity AUC 0-120 min vs control; for 50 mg/kg Inhibition (%): oral dose 50 mg/5 mL/kg; for Inhibitory Rate (%) of Phosphorus Absorption: oral dose 100 mg/5 mL/kg
Procedure: Seven-week-old male rats of SD line (available from SANKYO Labo-Service Co., Ltd.), as test animals, were kept and acclimatized using the usual feed (Solid CRF-1 available from ORIENTAL Yeast Co., Ltd.) and they were used in the following tests after they were fasted overnight. Each candidate substance (synthesized compound) dissolved in distilled water for injection (Otsuka Pharmaceutical Co., Ltd.) was orally administered in a dose of 100 mg/5 mL/kg or 50 mg/5 mL/kg and after 5 minutes from the administration, 3 mg/3 mL/kg, 1 MBq/kg of an NaH2PO4 solution containing ^32P (available from PerkinElmer Company) was orally administered. Subsequently, the blood was collected with the elapse of time through the caudal vein of the test animal to thus obtain the serum thereof and the radioactivity of 40 μL of the serum was determined using a liquid scintillation counter. The inhibitory rate (%) for each candidate compound was calculated on the basis of the foregoing measured values according to the following equation: […]

in vitro = type: cell-based; conditions: for IC50 at 1 day: dog
Procedure: MDCK Cells were inoculated into wells of a 96-well plate filled with D-MEM/F12 culture medium (available from GIBCO Company) supplemented with 10% FBS (available from TISSUE CULTURE BIOLOGICALS Company). After the cultivation of the cells for 3 days in a CO2 incubator, the culture medium was removed, a culture medium, in which each candidate substance (synthesized compound) had been dissolved, was added, followed by the cultivation for one day. To each well, there was added 10 μL of Cell Count Reagent SF (available from NAKARAI TESUKU K.K.), followed by the cultivation thereof for 2 hours and the subsequent determination of the absorbance observed at a wavelength of 460 nm. The IC50 values each were calculated on the basis of these measured values.

Compound	50 mg/kg Inhibition (%) (absorption of phosphorus)	Inhibitory Rate (%) of Phosphorus Absorption (absorption of phosphorus) [%]	further results
TETA[Orn(Orn)2]2(Orn)2 Hydrochloride [Example 39]	55) %	–	–
TETA(PheOrn)4 Hydrochloride [Example 57]	69%	–	–
TETA[Orn(Dab)2]4 Hydrochloride [Example 41]	58) %	–	–
SPM(Lys)2(Arg)2 Hydrochloride [Example 23]	–	45	–
TETA[PheAsp(DETA)]4 Hydrochloride [Example 74]	79%	–	–
TAA[3,5-NH2Bz(Orn)2]3 Hydrochloride [Example 72]	79%	–	–
TAA(TrpOrnDab)3 Hydrochloride [Example 61]	70%	–	–
NCCC[C@H](NC(=O)[C@H](CCCN)NC(=O)[C@@H](N)CCCN)C(=O)NCCCN(CCCCN(CCCNC(=O)[C@H](CCCN)NC(=O)[C@H](CCCN)NC(=O)[C@@H](N)CCCN)C(=O)[C@H](CCCN)NC(=O)[C@H](CCCN)NC(=O)[C@@H](N)CCCN)C(=O)[C@H](CCCN)NC(=O)[C@H](CCCN)NC(=O)[C@@H](N)CCCN [Example 28, SPM(Orn)12 Hydrochloride]	–	66	IC50 at 1 day (in vitro): > 10000 µg/mL
TETA(Phe-αOrnOrn)4 Hydrochloride [Example 49]	74%	–	–
TETA(ProOrnOrn)2(OrnOrnOrn)2 Hydrochloride [Example 66]	56%	–	–
TETA[Orn(Dab)2]4 TFA Salt [Example 35]	58%	–	–
NCCCC[C@H](N)C(=O)NCCCC[C@H](NC(=O)[C@@H](N)CCCCN)C(=O)NCCCN(CCCCN(CCCNC(=O)[C@H](CCCCNC(=O)[C@@H](N)CCCCN)NC(=O)[C@@H](N)CCCCN)C(=O)[C@H](CCCCNC(=O)[C@@H](N)CCCCN)NC(=O)[C@@H](N)CCCCN)C(=O)[C@H](CCCCNC(=O)[C@@H](N)CCCCN)NC(=O)[C@@H](N)CCCCN [Example 2, SPM(Lys)12 Hydrochloride]	–	52	IC50 at 1 day (in vitro): > 10000 µg/mL
TAA[(Benzoyl-4-methylene)DETA]3 Hydrochloride [Example 76]	78%	–	–
SPM(Orn)12 Hydrochloride [Example 8]	–	63	–
SPM(Lys)2(Orn)2 Hydrochloride [Example 10]	–	30	–
NCCCC[C@H](N)C(=O)NCCCC[C@H](NC(=O)[C@@H](N)CCCCN)C(=O)NCCCNCCCCNCCCNC(=O)[C@H](CCCCNC(=O)[C@@H](N)CCCCN)NC(=O)[C@@H](N)CCCCN [Example 7, SPM(Lys)6 Hydrochloride]	–	24	IC50 (in vitro): > 10000 µg/mL
TETA(OrnOrnOrn)2(ProOrnOrn)2 Hydrochloride [Example 65]	57%	–	–
TETA(TyrOrn)2(OrnOrn)2 TFA Salt [Example 42]	59%	–	–
SPM(Orn)4 Hydrochloride [Example 9]	–	30	–
TETA(OrnOrn)2(LeuOrn)2 Hydrochloride [Example 73]	52%	–	–

Compound	50 mg/kg Inhibition (%) (absorption of phosphorus)	Inhibitory Rate (%) of Phosphorus Absorption (absorption of phosphorus) [%]	further results
TETA(OrnOrn)2(ChaOrn)2 Hydrochloride [Example 58]	79%	–	–
NCCCC[C@H](N)C(=O)NCCCC[C@H](N)C(=O)NCCCN(CCCCN(CCCNC(=O)[C@@H](N)CCCCNC(=O)[C@@H](N)CCCCN)C(=O)[C@@H](N)CCCCNC(=O)[C@@H](N)CCCCN)C(=O)[C@@H](N)CCCCNC(=O)[C@@H](N)CCCCN [Example 15, SPM(Lys)8 Hydrochloride]	–	33	IC50 at 1 day (in vitro): > 10000 µg/mL
TETA(PheOrn)2(OrnOrn)2 Hydrochloride [Example 37]	60%	–	–
TETA(OrnOrn)2(PheOrn)2 Hydrochloride [Example 50]	79%	–	–
SPM(Orn)2 Hydrochloride [Example 17]	–	30	–
SPM(Lys)9 Hydrochloride [Example 27]	–	64	–
NCCCC[C@H](N)C(=O)N(CCCCN(CCCNC(=O)[C@@H](N)CCCN)C(=O)[C@@H](N)CCCCN)CCCNC(=O)[C@@H](N)CCCN [Example 13, SPM(Orn)2(Lys)2 Hydrochloride]	–	36	IC50 at 1 day (in vitro): > 10000 µg/mL
TETA[Dab(Dab)2]4 Hydrochloride [Example 53]	60%	–	–
TETA(TyrOrn)2(OrnOrn)2 Hydrochloride [Example 52]	59) %	–	–
TAA[PheDab(Dab)2]3 Hydrochloride [Example 71]	54%	–	–
TETA(OrnPheOrn)4 Hydrochloride [Example 70]	57%	–	–
NCCCC[C@H](NC(=O)[C@H](CCCCN)NC(=O)[C@@H](N)CCCCN)C(=O)NCCCN(CCCCN(CCCNC(=O)[C@H](CCCCN)NC(=O)[C@H](CCCCN)NC(=O)[C@@H](N)CCCCN)C(=O)[C@H](CCCCN)NC(=O)[C@H](CCCCN)NC(=O)[C@@H](N)CCCCN)C(=O)[C@H](CCCCN)NC(=O)[C@H](CCCCN)NC(=O)[C@@H](N)CCCCN [Example 20, SPM(Lys)12 Hydrochloride]	–	60	IC50 at 1 day (in vitro): > 10000 µg/mL
TAA(PheOrnOrn)3 Hydrochloride [Example 48]	74%	–	–
TETA(PheOrnDab)4 Hydrochloride [Example 67]	84%	–	–
TETA(PheOrn(3-Ala)4 Hydrochloride [Example 68]	73%	–	–
TETA(Orn)2[Orn(Orn)2]2 Hydrochloride [Example 38]	63) %	–	–
TETA(TrpOrn)2(OrnOrn)2 Hydrochloride [Example 47]	72%	–	–
TETA(D-Phe-Orn-Orn)4 Hydrochloride [Example 55]	85%	–	–
TEPA(PheOrn)5 Hydrochloride [Example 64]	87%	–	–
N=C(N)NCCC[C@H](N)C(=O)NCCCN(CCCCN(CCCNC(=O)[C@@H](N)CCCNC(=N)N)C(=O)[C@@H](N)CCCNC(=N)N)C(=O)[C@@H](N)CCCNC(=N)N [Example 5, SPM(Arg)4 Hydrochloride]	–	52	IC50 at 1 day (in vitro): > 10000 µg/mL

Compound	50 mg/kg Inhibition (%) (absorption of phosphorus)	Inhibitory Rate (%) of Phosphorus Absorption (absorption of phosphorus) [%]	further results
TETA (Trp-Orn-Dab)4 Hydrochloride [Example 56]	71%	–	–
TETA(LeuOrn)4 Hydrochloride [Example 75]	55%	–	–
TETA[Phe-Orn(Orn)2]4 Hydrochloride [Example 51]	62%	–	–
TETA(Orn)2[Orn(Orn)2]2 TFA Salt [Example 34]	63%	–	–
SPM(Orn)8 Hydrochloride [Example 22]	–	60	–
TETA(Phe-δOrnOrn)4 Hydrochloride [Example 40]	76%	–	–
TETA[Lys(Dab)2]4 TFA Salt [Example 54]	53%	–	–
NCCCC[C@H](NC(=O)[C@@H](N)CCCCN)C(=O)NCCCN(CCCCN(CCCNC(=O)[C@H](CCCCN)NC(=O)[C@@H](N)CCCCN)C(=O)[C@H](CCCCN)NC(=O)[C@@H](N)CCCCN)C(=O)[C@H](CCCCN)NC(=O)[C@@H](N)CCCCN [Example 16, SPM(Lys)8 Hydrochloride]	–	49	IC50 at 1 day (in vitro): > 10000 µg/mL
NCCC[C@H](N)C(=O)NCCCN(CCCCN(CCCNC(=O)[C@@H](N)CCCN)C(=O)[C@@H](N)CCCN)C(=O)[C@@H](N)CCCN [Example 4, SPM(Orn)4 Hydrochloride]	–	58	IC50 at 1 day (in vitro): > 10000 µg/mL
TETA(OrnPheDab)4 Hydrochloride [Example 69]	67%	–	–
TETA(PheOrn)2[Orn(Orn)Orn]2 Hydrochloride [Example 43]	60%	–	–
TETA(Phe-δOrnOrn)5 Hydrochloride [Example 45]	76%	–	–
SPM(Arg)2(Lys)2 Hydrochloride [Example 19]	–	35	–
TETA[Orn(Orn)2]2(Orn)2 TFA Salt [Example 36]	55%	–	–
TETA(D-PheOrn)2(OrnOrn)2 Hydrochloride [Example 46]	62%	–	–
SPM(Lys)8 Hydrochloride [Example 11]	–	44	–
TAA(TrpOrnOrn)3 Hydrochloride [Example 60]	64%	–	–
TETA(4-NH2Bz)4(Orn)4(Orn)8 Hydrochloride [Example 62]	66%	–	–
TETA(PheDab)4 Hydrochloride [Example 63]	73%	–	–
TETA(Orn)2[Dab(Dab)2]2 Hydrochloride [Example 59]	57%	–	–
